Source: ChEMBL document CHEMBL4219106, “Discovery and optimization of tetrahydropyrido[4,3-d]pyrimidine derivatives as novel ATX and EGFR dual inhibitors” (Bioorg Med Chem, 2018)
Blank lines part the entries; values can stand above or below the compound they belong to. Active and inactive are the calls of the source. No cut-off for these calls is given here.

Key:
A549 [1] = test: Cytotoxicity against human A549 cells assessed as reduction in cell viability after 72 hrs by MTT assay; type: functional, cell-based; conditions: A549, 72 h
NCI-H1975 = test: Cytotoxicity against human NCI-H1975 cells assessed as reduction in cell viability after 72 hrs by MTT assay; type: functional, cell-based; conditions: NCI-H1975, 72 h
MKN-45 [2] = test: Cytotoxicity against human MKN45 cells assessed as reduction in cell viability after 72 hrs by MTT assay; type: functional, cell-based; conditions: MKN-45, 72 h
[3] = Cytotoxicity against human SGC cells assessed as reduction in cell viability after 72 hrs by MTT assay; type: functional, cell-based
MKN-45 [4] = test: Potency index, ratio of gefitinib IC50 to compound IC50 for human MKN45 cells; type: functional
A549 [5] = test: Potency index, ratio of gefitinib IC50 to compound IC50 for human A549 cells; type: functional
[6] = Potency index, ratio of gefitinib IC50 to compound IC50 for human SGC cells; type: functional
[7] = biological target: Epidermal growth factor receptor (Homo sapiens, UniProt P00533); test: Inhibition of EGFR (unknown origin) using peptide substrate after 60 mins by HTRF assay
[8] = biological target: Vascular endothelial growth factor receptor 2 (Homo sapiens, UniProt P35968); test: Inhibition of VEGFR2 (unknown origin) using peptide substrate after 60 mins by HTRF assay
[9] = biological target: Epidermal growth factor receptor (Homo sapiens, UniProt P00533, L858R/T790M); test: Inhibition of EGFR T790M/L858R double mutant (unknown origin) using peptide substrate after 60 mins by HTRF assay
RAW264.7 [10] = test: Anti-inflammatory activity in mouse RAW264.7 cells assessed as inhibition of LPS-induced NO production by measuring NO level at 10 ug/ml preincubated for 1 hr followed by LPS-stimulation measured after 24 hrs by Griess assay; type: functional
RAW264.7 [11] = test: Anti-inflammatory activity in mouse RAW264.7 cells assessed as inhibition of LPS-induced NO production by measuring NO level at 2.5 ug/ml preincubated for 1 hr followed by LPS-stimulation measured after 24 hrs by Griess assay; type: functional
RAW264.7 [12] = test: Anti-inflammatory activity in mouse RAW264.7 cells assessed as inhibition of LPS-induced NO production by measuring NO level at 5 ug/ml preincubated for 1 hr followed by LPS-stimulation measured after 24 hrs by Griess assay; type: functional
[13] = Antifibrotic activity against Wistar rat cardiac fibroblasts assessed as inhibition of cell proliferation at 20 uM after 12 hrs by MTT assay relative to control; type: functional
[14] = Antifibrotic activity against TGF-induced Wistar rat cardiac fibroblasts assessed as inhibition of cell proliferation after 12 hrs by MTT assay; type: functional
[15] = Inhibition of glycosylated human ATX using substrate FS-3 preincubated for 45 mins followed by substrate addition measured after 45 mins by fluorescence assay
RAW264.7 [16] = test: Anti-inflammatory activity in mouse RAW264.7 cells assessed as inhibition of LPS-induced TGFbeta mRNA level preincubated for 2 hrs followed by LPS-stimulation measured after 8 hrs by RT-PCR method; type: functional, cell-based
RAW264.7 [17] = test: Anti-inflammatory activity in mouse RAW264.7 cells assessed as inhibition of LPS-induced TNFalpha mRNA level preincubated for 2 hrs followed by LPS-stimulation measured after 8 hrs by RT-PCR method; type: functional, cell-based
RAW264.7 [18] = test: Anti-inflammatory activity in mouse RAW264.7 cells assessed as inhibition of LPS-induced TGFbeta mRNA level at 2.5 ug/ml preincubated for 2 hrs followed by LPS-stimulation measured after 8 hrs by RT-PCR method relative to control; type: functional
RAW264.7 [19] = test: Anti-inflammatory activity in mouse RAW264.7 cells assessed as inhibition of LPS-induced TGFbeta mRNA level at 5 ug/ml preincubated for 2 hrs followed by LPS-stimulation measured after 8 hrs by RT-PCR method relative to control; type: functional
RAW264.7 [20] = test: Anti-inflammatory activity in mouse RAW264.7 cells assessed as inhibition of LPS-induced TGFbeta mRNA level at 10 ug/ml preincubated for 2 hrs followed by LPS-stimulation measured after 8 hrs by RT-PCR method relative to control; type: functional
RAW264.7 [21] = test: Anti-inflammatory activity in mouse RAW264.7 cells assessed as inhibition of LPS-induced TNFalpha mRNA level at 2.5 ug/ml preincubated for 2 hrs followed by LPS-stimulation measured after 8 hrs by RT-PCR method relative to control; type: functional
RAW264.7 [22] = test: Anti-inflammatory activity in mouse RAW264.7 cells assessed as inhibition of LPS-induced TNFalpha mRNA level at 5 ug/ml preincubated for 2 hrs followed by LPS-stimulation measured after 8 hrs by RT-PCR method relative to control; type: functional
RAW264.7 [23] = test: Anti-inflammatory activity in mouse RAW264.7 cells assessed as inhibition of LPS-induced TNFalpha mRNA level at 10 ug/ml preincubated for 2 hrs followed by LPS-stimulation measured after 8 hrs by RT-PCR method relative to control; type: functional

Vascular endothelial growth factor receptor 2, sequence (P35968 whole entry): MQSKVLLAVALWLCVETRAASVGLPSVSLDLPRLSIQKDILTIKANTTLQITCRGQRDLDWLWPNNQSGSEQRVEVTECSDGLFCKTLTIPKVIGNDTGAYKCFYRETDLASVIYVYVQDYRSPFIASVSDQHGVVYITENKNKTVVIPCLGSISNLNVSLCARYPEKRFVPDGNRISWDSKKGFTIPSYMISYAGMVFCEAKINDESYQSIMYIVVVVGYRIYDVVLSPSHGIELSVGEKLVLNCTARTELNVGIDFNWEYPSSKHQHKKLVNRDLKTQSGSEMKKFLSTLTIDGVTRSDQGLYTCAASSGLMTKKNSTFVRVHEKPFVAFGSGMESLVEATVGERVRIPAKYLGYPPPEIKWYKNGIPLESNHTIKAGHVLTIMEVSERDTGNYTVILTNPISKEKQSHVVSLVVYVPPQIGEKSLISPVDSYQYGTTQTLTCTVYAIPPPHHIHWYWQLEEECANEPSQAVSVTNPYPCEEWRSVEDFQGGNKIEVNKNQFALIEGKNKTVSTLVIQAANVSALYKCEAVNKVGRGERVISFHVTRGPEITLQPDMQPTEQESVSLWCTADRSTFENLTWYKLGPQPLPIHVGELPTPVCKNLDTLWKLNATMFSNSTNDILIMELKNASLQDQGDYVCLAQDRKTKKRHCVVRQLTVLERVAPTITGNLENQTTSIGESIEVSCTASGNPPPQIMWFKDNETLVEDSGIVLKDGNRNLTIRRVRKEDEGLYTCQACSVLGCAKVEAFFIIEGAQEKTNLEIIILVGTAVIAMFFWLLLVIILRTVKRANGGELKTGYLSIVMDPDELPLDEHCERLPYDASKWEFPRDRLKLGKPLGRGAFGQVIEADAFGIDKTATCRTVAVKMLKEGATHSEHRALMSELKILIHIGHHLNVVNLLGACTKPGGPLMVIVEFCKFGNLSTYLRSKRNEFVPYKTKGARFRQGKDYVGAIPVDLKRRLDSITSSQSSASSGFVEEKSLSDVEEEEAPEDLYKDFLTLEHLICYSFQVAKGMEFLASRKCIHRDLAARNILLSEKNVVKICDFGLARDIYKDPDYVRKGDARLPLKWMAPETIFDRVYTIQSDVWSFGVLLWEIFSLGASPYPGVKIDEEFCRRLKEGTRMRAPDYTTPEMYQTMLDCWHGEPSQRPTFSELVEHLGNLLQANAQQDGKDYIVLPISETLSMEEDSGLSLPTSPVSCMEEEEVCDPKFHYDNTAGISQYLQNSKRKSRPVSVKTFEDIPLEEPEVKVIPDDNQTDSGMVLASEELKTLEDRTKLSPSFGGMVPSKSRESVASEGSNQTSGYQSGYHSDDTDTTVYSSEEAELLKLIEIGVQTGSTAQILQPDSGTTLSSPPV
Epidermal growth factor receptor (Homo sapiens, UniProt P00533), sequence (P00533 whole entry): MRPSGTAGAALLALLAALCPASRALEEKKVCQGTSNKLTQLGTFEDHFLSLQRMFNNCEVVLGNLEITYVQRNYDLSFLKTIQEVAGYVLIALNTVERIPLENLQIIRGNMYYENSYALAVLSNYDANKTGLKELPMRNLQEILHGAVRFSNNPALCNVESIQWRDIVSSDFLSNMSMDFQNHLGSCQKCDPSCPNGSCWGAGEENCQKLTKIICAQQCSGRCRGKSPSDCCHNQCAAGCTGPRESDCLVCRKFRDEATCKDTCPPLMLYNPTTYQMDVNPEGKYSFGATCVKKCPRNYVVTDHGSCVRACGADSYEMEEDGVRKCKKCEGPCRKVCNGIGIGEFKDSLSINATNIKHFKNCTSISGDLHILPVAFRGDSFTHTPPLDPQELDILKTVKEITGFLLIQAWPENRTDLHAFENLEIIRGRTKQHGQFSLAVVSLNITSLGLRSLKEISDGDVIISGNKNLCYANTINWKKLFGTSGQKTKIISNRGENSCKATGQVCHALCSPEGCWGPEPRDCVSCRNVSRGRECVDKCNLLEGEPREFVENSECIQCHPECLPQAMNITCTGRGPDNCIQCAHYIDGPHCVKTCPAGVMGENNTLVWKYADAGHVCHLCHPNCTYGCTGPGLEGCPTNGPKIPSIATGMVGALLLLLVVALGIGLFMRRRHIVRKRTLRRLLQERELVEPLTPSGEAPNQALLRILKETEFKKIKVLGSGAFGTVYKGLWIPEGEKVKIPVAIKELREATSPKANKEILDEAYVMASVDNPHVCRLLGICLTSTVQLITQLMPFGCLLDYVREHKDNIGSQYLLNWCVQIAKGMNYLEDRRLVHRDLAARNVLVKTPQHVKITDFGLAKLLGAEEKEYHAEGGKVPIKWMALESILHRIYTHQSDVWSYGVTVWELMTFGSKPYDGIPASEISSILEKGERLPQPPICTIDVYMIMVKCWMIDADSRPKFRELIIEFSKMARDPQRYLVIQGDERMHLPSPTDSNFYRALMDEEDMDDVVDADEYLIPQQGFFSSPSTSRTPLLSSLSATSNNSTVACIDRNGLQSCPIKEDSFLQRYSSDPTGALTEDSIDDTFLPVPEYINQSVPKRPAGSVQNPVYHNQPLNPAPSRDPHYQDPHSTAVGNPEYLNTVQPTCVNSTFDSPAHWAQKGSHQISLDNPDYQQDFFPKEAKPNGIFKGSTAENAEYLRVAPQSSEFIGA
Epidermal growth factor receptor (Homo sapiens, UniProt P00533, L858R/T790M), sequence (P00533 25-1210 T790M/L858R limits assumed): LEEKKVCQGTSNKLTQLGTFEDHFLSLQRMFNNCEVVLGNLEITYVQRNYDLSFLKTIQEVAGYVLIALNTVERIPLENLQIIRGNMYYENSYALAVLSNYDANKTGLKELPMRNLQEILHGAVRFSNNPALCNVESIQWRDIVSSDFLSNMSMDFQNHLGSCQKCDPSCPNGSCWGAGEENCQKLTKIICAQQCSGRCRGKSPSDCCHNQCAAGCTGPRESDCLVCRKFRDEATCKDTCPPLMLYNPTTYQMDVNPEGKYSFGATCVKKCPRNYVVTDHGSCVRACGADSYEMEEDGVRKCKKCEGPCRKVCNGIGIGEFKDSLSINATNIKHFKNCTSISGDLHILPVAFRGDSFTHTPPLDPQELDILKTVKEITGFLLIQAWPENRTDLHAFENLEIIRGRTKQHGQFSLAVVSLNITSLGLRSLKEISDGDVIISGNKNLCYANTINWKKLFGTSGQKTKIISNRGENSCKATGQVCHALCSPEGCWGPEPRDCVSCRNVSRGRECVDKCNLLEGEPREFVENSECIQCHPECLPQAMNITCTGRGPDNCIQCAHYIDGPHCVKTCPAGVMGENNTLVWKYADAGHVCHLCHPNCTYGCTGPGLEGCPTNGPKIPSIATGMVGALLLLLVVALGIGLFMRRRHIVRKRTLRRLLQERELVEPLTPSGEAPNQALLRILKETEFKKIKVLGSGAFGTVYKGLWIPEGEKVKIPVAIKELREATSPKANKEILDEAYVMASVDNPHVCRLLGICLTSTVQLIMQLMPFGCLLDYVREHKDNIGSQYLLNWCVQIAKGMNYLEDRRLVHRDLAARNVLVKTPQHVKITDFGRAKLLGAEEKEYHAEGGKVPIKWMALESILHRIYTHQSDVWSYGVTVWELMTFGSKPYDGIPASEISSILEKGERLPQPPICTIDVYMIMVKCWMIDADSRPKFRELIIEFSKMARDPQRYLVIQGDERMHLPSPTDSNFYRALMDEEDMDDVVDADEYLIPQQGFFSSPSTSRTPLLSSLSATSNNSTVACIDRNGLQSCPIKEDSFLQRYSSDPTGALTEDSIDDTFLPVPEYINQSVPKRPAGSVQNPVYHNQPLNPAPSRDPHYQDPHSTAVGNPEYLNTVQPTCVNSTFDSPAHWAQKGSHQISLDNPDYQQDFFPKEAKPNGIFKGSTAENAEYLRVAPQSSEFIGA

IC50 [7]: 0.018 µM
IC50 [8]: 0.133 µM
IC50 [9]: 0.94 µM
SMILES: O=C(N/N=C/c1ccc(F)cc1Cl)N1CCc2ncnc(Nc3cccc(Br)c3)c2C1
IC50 (A549 [1]): 1.61 µM
IC50 (NCI-H1975): 15.7 µM
IC50 (MKN-45 [2]): 1.71 µM
IC50 [3]: 0.99 µM
Ratio IC50 (MKN-45 [4]): 6.1
Ratio IC50 (A549 [5]): 7.6
Ratio IC50 [6]: 3.3
inhibition (RAW264.7 [10]): Active
inhibition (RAW264.7 [11]): Active
inhibition (RAW264.7 [12]): Active

SMILES: O=C(N/N=C/c1ccc(F)cc1)N1CCc2ncnc(Nc3cccc(Br)c3)c2C1
IC50 (A549 [1]): 2.27 µM
IC50 (NCI-H1975): 37.6 µM
IC50 (MKN-45 [2]): 2.49 µM
IC50 [3]: 1.79 µM
inhibition (RAW264.7 [10]): Active
inhibition (RAW264.7 [11]): Active
inhibition (RAW264.7 [12]): Active

SMILES: N#Cc1ccc(/C=N/NC(=O)N2CCc3ncnc(Nc4ccc(F)c(Cl)c4)c3C2)cc1
IC50 (A549 [1]): 42.6 µM
IC50 (NCI-H1975): 67.5 µM
IC50 (MKN-45 [2]): 52.3 µM
IC50 [3]: 35.8 µM

SMILES: O=C(N/N=C/c1cccc([N+](=O)[O-])c1)N1CCc2ncnc(Nc3ccc(F)c(Cl)c3)c2C1
IC50 (A549 [1]): 43.1 µM
IC50 (NCI-H1975): 86.9 µM
IC50 (MKN-45 [2]): > 200 µM
IC50 [3]: 34.8 µM

SMILES: O=C(N/N=C/c1ccc(C(F)(F)F)cc1)N1CCc2ncnc(Nc3ccc(F)c(Cl)c3)c2C1
IC50 (A549 [1]): 37.8 µM
IC50 (NCI-H1975): 36.8 µM
IC50 (MKN-45 [2]): 21.4 µM
IC50 [3]: 36.4 µM
inhibition at 20 µM [13]: 65 to 83%
Activity (RAW264.7 [10]): 0.79 µM
Activity (RAW264.7 [11]): 3.87 µM
Activity (RAW264.7 [12]): 2.1 µM

SMILES: O=C(N/N=C/c1ccc(Br)cc1)N1CCc2ncnc(Nc3ccc(F)c(Cl)c3)c2C1
IC50 (A549 [1]): 14.1 µM
IC50 (NCI-H1975): > 200 µM
IC50 (MKN-45 [2]): 12.1 µM
IC50 [3]: 13.5 µM
inhibition at 20 µM [13]: 65 to 83%

IC50 [7]: 0.0423 µM
IC50 [8]: 0.17 µM
IC50 [15]: 0.0384 µM
SMILES: O=C(N/N=C/c1cc(F)c(F)cc1Cl)N1CCc2ncnc(Nc3ccc(F)c(Cl)c3)c2C1
IC50 (A549 [1]): 7.55 µM
IC50 (NCI-H1975): 46.1 µM
IC50 (MKN-45 [2]): 7.33 µM
IC50 [3]: 10.4 µM
inhibition at 20 µM [13]: 65 to 83%
IC50 [14]: 1.91 µM

IC50 [7]: 0.0242 µM
IC50 [8]: 0.152 µM
IC50 [9]: 3.22 µM
IC50 [15]: 0.0291 µM
SMILES: Cc1ccc(/C=N/NC(=O)N2CCc3ncnc(Nc4cccc(C(F)(F)F)c4)c3C2)cc1
IC50 (A549 [1]): 4.96 µM
IC50 (NCI-H1975): 21.3 µM
IC50 (MKN-45 [2]): 3.43 µM
IC50 [3]: 2.91 µM
inhibition at 20 µM [13]: 77%
IC50 [14]: 1.49 µM
Activity (RAW264.7 [10]): 1.05 µM
inhibition (RAW264.7 [16]): Dose-dependent effect
inhibition (RAW264.7 [17]): Dose-dependent effect
inhibition at 2.5 µg/mL (RAW264.7 [18]): 46%
inhibition at 5 µg/mL (RAW264.7 [19]): 65%
inhibition at 10 µg/mL (RAW264.7 [20]): 86%
inhibition at 2.5 µg/mL (RAW264.7 [21]): 37%
inhibition at 5 µg/mL (RAW264.7 [22]): 54%
inhibition at 10 µg/mL (RAW264.7 [23]): 72%

SMILES: O=C(N/N=C/c1ccc(Br)cc1)N1CCc2ncnc(Nc3cccc(C(F)(F)F)c3)c2C1
IC50 (A549 [1]): 11.5 µM
IC50 (NCI-H1975): 61.4 µM
IC50 (MKN-45 [2]): 11.4 µM
IC50 [3]: 16.8 µM
inhibition at 20 µM [13]: 65 to 83%

SMILES: O=C(N/N=C/c1ccc(C(F)(F)F)cc1)N1CCc2ncnc(Nc3cccc(C(F)(F)F)c3)c2C1
inhibition at 20 µM [13]: 65 to 83%

SMILES: O=C(N/N=C/c1cccs1)N1CCc2ncnc(Nc3cccc(Br)c3)c2C1
IC50 (A549 [1]): 50.2 µM
IC50 (NCI-H1975): 122 µM
IC50 (MKN-45 [2]): > 200 µM
IC50 [3]: > 200 µM
inhibition at 20 µM [13]: 65 to 83%
Activity (RAW264.7 [10]): <1.9 µM

IC50 [7]: 0.0625 µM
IC50 [8]: 0.237 µM
SMILES: O=C(N/N=C/c1cccs1)N1CCc2ncnc(Nc3ccc(F)c(Cl)c3)c2C1
IC50 (A549 [1]): > 200 µM
IC50 (NCI-H1975): 33 µM
IC50 (MKN-45 [2]): 57.3 µM
IC50 [3]: 96.3 µM
inhibition at 20 µM [13]: 83%
Activity (RAW264.7 [10]): <1.9 µM
